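48-hour exposure; five concentrations; linearly interpolated endpoints. Here, GI50 denotes the concentration required for 50% inhibition of growth. TGI is the concentration that stops growth completely.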
Assays:
Experiment in all cases: growth of human tumour cells (NCI), 48 h
786-0 renal = test system: 786-0 renal
A498 renal = test system: A498 renal
A549 NSCLC = test system: A549 NSCLC
ACHN renal = test system: ACHN renal
BT-549 breast = test system: BT-549 breast
CAKI-1 renal = test system: CAKI-1 renal
CCRF-CEM leukemia = test system: CCRF-CEM leukemia
COLO 205 colon = test system: COLO 205 colon
DU-145 prostate = test system: DU-145 prostate
EKVX NSCLC = test system: EKVX NSCLC
HCC-2998 colon = test system: HCC-2998 colon
HCT-116 colon = test system: HCT-116 colon
HCT-15 colon = test system: HCT-15 colon
HL-60(TB) leukemia = test system: HL-60(TB) leukemia
HOP-62 NSCLC = test system: HOP-62 NSCLC
HOP-92 NSCLC = test system: HOP-92 NSCLC
HS 578T breast = test system: HS 578T breast
HT29 colon = test system: HT29 colon
IGROV1 ovarian = test system: IGROV1 ovarian
K-562 leukemia = test system: K-562 leukemia
KM12 colon = test system: KM12 colon
LOX IMVI melanoma = test system: LOX IMVI melanoma
M14 melanoma = test system: M14 melanoma
MALME-3M melanoma = test system: MALME-3M melanoma
MCF7 breast = test system: MCF7 breast
MDA-MB-231 breast = test system: MDA-MB-231 breast
MDA-MB-435 = test system: MDA-MB-435
MOLT-4 leukemia = test system: MOLT-4 leukemia
NCI-H226 lung = test system: NCI-H226 lung
NCI-H23 lung = test system: NCI-H23 lung
NCI-H460 lung = test system: NCI-H460 lung
NCI-H522 lung = test system: NCI-H522 lung
NCI/ADR-RES ovarian = test system: NCI/ADR-RES ovarian
OVCAR-3 ovarian = test system: OVCAR-3 ovarian
OVCAR-4 ovarian = test system: OVCAR-4 ovarian
OVCAR-5 ovarian = test system: OVCAR-5 ovarian
OVCAR-8 ovarian = test system: OVCAR-8 ovarian
PC-3 prostate = test system: PC-3 prostate
RPMI-8226 leukemia = test system: RPMI-8226 leukemia
RXF 393 renal = test system: RXF 393 renal
SF-268 CNS = test system: SF-268 CNS
SF-295 CNS = test system: SF-295 CNS
SF-539 CNS = test system: SF-539 CNS
SK-MEL-2 melanoma = test system: SK-MEL-2 melanoma
SK-MEL-28 melanoma = test system: SK-MEL-28 melanoma
SK-MEL-5 melanoma = test system: SK-MEL-5 melanoma
SK-OV-3 ovarian = test system: SK-OV-3 ovarian
SN12C renal = test system: SN12C renal
SNB-19 CNS = test system: SNB-19 CNS
SNB-75 CNS = test system: SNB-75 CNS
SR leukemia = test system: SR leukemia
SW-620 colon = test system: SW-620 colon
T-47D breast = test system: T-47D breast
TK-10 renal = test system: TK-10 renal
U251 CNS = test system: U251 CNS
UACC-257 melanoma = test system: UACC-257 melanoma
UACC-62 melanoma = test system: UACC-62 melanoma
UO-31 renal = test system: UO-31 renal

For `CCSc1ncnc2c1ncn2C1OC(CO)C(O)C1O` (stereo unspecified), the GI50 (786-0 renal) was 449 nM, the TGI (786-0 renal) was > 100000 nM and the GI50 (A498 renal) was 81 nM. For the same molecule, the TGI (A498 renal) was 1920 nM, the GI50 (A549 NSCLC) was 777 nM and the TGI (A549 NSCLC) was > 60200 nM. For the same molecule, the GI50 (ACHN renal) was 425 nM, the TGI (ACHN renal) was > 100000 nM and the GI50 (BT-549 breast) was 729 nM. The TGI (BT-549 breast) was > 44200 nM, the GI50 (CAKI-1 renal) was 272 nM and the TGI (CAKI-1 renal) was > 55400 nM. For the same molecule, the GI50 (CCRF-CEM leukemia) was 146 nM, the TGI (CCRF-CEM leukemia) was > 100000 nM and the GI50 (COLO 205 colon) was 777 nM. The TGI (COLO 205 colon) was > 100000 nM, the GI50 (DU-145 prostate) was 129 nM and the TGI (DU-145 prostate) was 32500 nM. The GI50 (EKVX NSCLC) was 419 nM, the TGI (EKVX NSCLC) was > 100000 nM and the GI50 (HCC-2998 colon) was 203 nM. For the same molecule, the TGI (HCC-2998 colon) was 7350 nM, the GI50 (HCT-116 colon) was 339 nM and the TGI (HCT-116 colon) was > 100000 nM. For the same molecule, the GI50 (HCT-15 colon) was 274 nM, the TGI (HCT-15 colon) was > 100000 nM and the GI50 (HL-60(TB) leukemia) was 354 nM. The TGI (HL-60(TB) leukemia) was 31100 nM, the GI50 (HOP-62 NSCLC) was 1470 nM and the TGI (HOP-62 NSCLC) was > 100000 nM. For the same molecule, the GI50 (HOP-92 NSCLC) was 1980 nM, the TGI (HOP-92 NSCLC) was 12200 nM and the GI50 (HS 578T breast) was 975 nM. For the same molecule, the TGI (HS 578T breast) was 34000 nM, the GI50 (HT29 colon) was 229 nM and the TGI (HT29 colon) was > 100000 nM. The GI50 (IGROV1 ovarian) was 442 nM, the TGI (IGROV1 ovarian) was 18100 nM and the GI50 (K-562 leukemia) was 3060 nM. For the same molecule, the TGI (K-562 leukemia) was > 100000 nM, the GI50 (KM12 colon) was 702 nM and the TGI (KM12 colon) was > 100000 nM. It also gave a GI50 (LOX IMVI melanoma) of 94.5 nM, a TGI (LOX IMVI melanoma) of 16800 nM and a GI50 (M14 melanoma) of 589 nM. The TGI (M14 melanoma) was > 100000 nM, the GI50 (MALME-3M melanoma) was 9410 nM and the TGI (MALME-3M melanoma) was > 100000 nM. For the same molecule, the GI50 (MCF7 breast) was 288 nM, the TGI (MCF7 breast) was > 91200 nM and the GI50 (MDA-MB-231 breast) was 745 nM. For the same molecule, the TGI (MDA-MB-231 breast) was > 100000 nM, the GI50 (MDA-MB-435) was 482 nM and the TGI (MDA-MB-435) was > 100000 nM. The GI50 (MOLT-4 leukemia) was 173 nM, the TGI (MOLT-4 leukemia) was > 87100 nM and the GI50 (NCI-H226 lung) was 845 nM. The TGI (NCI-H226 lung) was > 100000 nM, the GI50 (NCI-H23 lung) was 434 nM and the TGI (NCI-H23 lung) was > 100000 nM. The GI50 (NCI-H460 lung) was 600 nM, the TGI (NCI-H460 lung) was > 100000 nM and the GI50 (NCI-H522 lung) was 648 nM. The TGI (NCI-H522 lung) was > 100000 nM, the GI50 (NCI/ADR-RES ovarian) was 432 nM and the TGI (NCI/ADR-RES ovarian) was > 57100 nM. The GI50 (OVCAR-3 ovarian) was 312 nM, the TGI (OVCAR-3 ovarian) was > 79700 nM and the GI50 (OVCAR-4 ovarian) was 9870 nM. The TGI (OVCAR-4 ovarian) was > 100000 nM, the GI50 (OVCAR-5 ovarian) was 650 nM and the TGI (OVCAR-5 ovarian) was > 100000 nM. The GI50 (OVCAR-8 ovarian) was 296 nM, the TGI (OVCAR-8 ovarian) was 16000 nM and the GI50 (PC-3 prostate) was 692 nM. For the same molecule, the TGI (PC-3 prostate) was > 71300 nM, the GI50 (RPMI-8226 leukemia) was 4500 nM and the TGI (RPMI-8226 leukemia) was > 100000 nM. The GI50 (RXF 393 renal) was 16000 nM, the TGI (RXF 393 renal) was > 90200 nM and the GI50 (SF-268 CNS) was 1020 nM. For the same molecule, the TGI (SF-268 CNS) was > 100000 nM, the GI50 (SF-295 CNS) was 843 nM and the TGI (SF-295 CNS) was > 43100 nM. The GI50 (SF-539 CNS) was 437 nM, the TGI (SF-539 CNS) was > 100000 nM and the GI50 (SK-MEL-2 melanoma) was 24100 nM. The TGI (SK-MEL-2 melanoma) was > 100000 nM, the GI50 (SK-MEL-28 melanoma) was > 48300 nM and the TGI (SK-MEL-28 melanoma) was > 100000 nM. The GI50 (SK-MEL-5 melanoma) was 2830 nM, the TGI (SK-MEL-5 melanoma) was > 100000 nM and the GI50 (SK-OV-3 ovarian) was 754 nM. For the same molecule, the TGI (SK-OV-3 ovarian) was > 100000 nM, the GI50 (SN12C renal) was 449 nM and the TGI (SN12C renal) was > 100000 nM. For the same molecule, the GI50 (SNB-19 CNS) was 8240 nM, the TGI (SNB-19 CNS) was > 100000 nM and the GI50 (SNB-75 CNS) was > 34100 nM. For the same molecule, the TGI (SNB-75 CNS) was > 100000 nM, the GI50 (SR leukemia) was 25300 nM and the TGI (SR leukemia) was > 100000 nM. For the same molecule, the GI50 (SW-620 colon) was 300 nM, the TGI (SW-620 colon) was > 100000 nM and the GI50 (T-47D breast) was 1690 nM. The TGI (T-47D breast) was > 48900 nM, the GI50 (TK-10 renal) was 1560 nM and the TGI (TK-10 renal) was > 100000 nM. For the same molecule, the GI50 (U251 CNS) was 6390 nM, the TGI (U251 CNS) was > 100000 nM and the GI50 (UACC-257 melanoma) was > 19800 nM. The TGI (UACC-257 melanoma) was > 100000 nM, the GI50 (UACC-62 melanoma) was 1480 nM and the TGI (UACC-62 melanoma) was > 100000 nM. The GI50 (UO-31 renal) was 405 nM and the TGI (UO-31 renal) was > 100000 nM.

— PubChem BioAssay (NCI)
